Literature values in US6251886A, “Methods of using temozolomide in the treatment of cancers” (priority 1999, dated 2001).
Entries after “also recorded” stand apart in the source; their conditions may differ. Where two headings read alike, the source gives them in different places.

Tests used:
[1] = clinical trials
[2] = test system: leptomeningeal medulloblastoma and pineoblastoma; conditions: i.t., Phase I
[3] = test system: D456-MG human glioma xenograft
brain tumors = conditions: clinical trials, vs adjuvant BCNU
human CNS xenografts = conditions: s.c. in athymic nude mice
[4] = systemic temozolomide, rat
[5] = oral therapy
[6] = known property
murine tumors = conditions: mouse, in vivo
advanced melanoma [7] = conditions: Phase I, patients with advanced melanoma
[8] = common, but tolerable
advanced melanoma [9] = conditions: Phase II, 60 patients with advanced melanoma
[10] = not given; remark: listed apart in the source
[11] = systemic temozolomide, Rhesus monkeys
[12] = Phase I, single-dose i.v. and oral

In the case of `NC(=O)c1ncn2c(=O)n(CCCl)nnc12` [mitozolomide], the thrombocytopenia [1] is listed as “severe and unpredictable thrombocytopenia”.
For `N[C@@H](Cc1ccc(N(CCCl)CCCl)cc1)C(=O)O` [melphalan], the activity in patients [2] is given as “activity has been seen in patients with leptomeningeal medulloblastoma and pineoblastoma”.
In the case of `O=NN(CCCl)C(=O)NCCCl` [BCNU, 1,3-bis(2-chloroethyl)-1-nitrosourea], the “resistance of D456 to BCNU” value [3] is given as “resistant”.
For `CNNCc1ccc(C(=O)NC(C)C)cc1` [procarbazine], the “activity against brain tumors” value (brain tumors) is given as “results comparable to adjuvant BCNU”.
In the case of `Cn1nnc2c(C(N)=O)ncn2c1=O` [temozolomide, 3,4-dihydro-3-methyl-4-oxoimidazo-[5,1-d]-1,2,3,4-tetrazin-8-carboximide], the “activity against human CNS xenografts” value (human CNS xenografts) is listed as “activity of temozolomide against a series of human CNS xenografts”, the “penetration into the CSF (CSF to plasma AUC zero to infinity ratio)” value [4] is listed as 41% to 44 and the peak serum concentrations [5] is listed as “approximately 10 mg/L”. For the same molecule, the “solubility (in words)” value [6] was “marked insolubility; also recorded: poor solubility”, the “activity against murine tumors” value (murine tumors) was “activity against a spectrum of murine tumors” and the clinical responses (advanced melanoma [7]) was 17%. For the same molecule, the side effect [8] was “nausea and vomiting”, the clinical response (advanced melanoma [9]) was 21% and the dose-limiting toxicity (Phase I and II, five-day regimen) was “dose-limiting myelosuppression; also recorded: dose-limiting stem cell toxicity”. The anti-neoplastic activity (Phase I and II, five-day regimen, including high-grade glioma) was “intriguing anti-neoplastic activity”, the antineoplastic activity [12] was “trivial antineoplastic activity” and the dose-limiting toxicity [12] was “dose-limiting myelosuppression”. The “effective concentration in vitro” value [10] was 0.1 mM and the “penetration into the CSF (CSF to plasma AUC zero to infinity ratio)” value [11] was 29.8%.
For `Cn1nnc2c(C(N)=O)ncn2c1=O` [microcrystalline temozolomide], the “sensitivity to BCNU” value (Mer- human MG xenograft) is listed as “BCNU-sensitive” and the “resistance of D456 to BCNU” value [3] is listed as “BCNU-resistant”.
